Tests used:
HK-2 cells = test: MTT cytotoxicity assay, HK-2; format: cell-based; details: Homo sapiens, incubation for 48 h
Procedure: SH-SY5Y cells, HepG2 cells, HK-2 cells and HT-22 cells were seeded on 96-well plates (5.0×10^3 per well) with 100 μL of culture medium, and incubated for 12 h at 37 °C in a humidified atmosphere with 5% CO2, and then exposed to various concentrations of B14. After 48 h of treatment at 37 °C in a humidified atmosphere with 5% CO2, 100 μL of 0.5 mg/mL MTT solution was added to each well, and the mixture was further incubated for 4 h. The cells in each well were then treated with DMSO (200 μL for each well), and the culture medium was siphoned off, and the absorbance was recorded at 570 nm. All drug doses were parallel tested in triplicate, and the cytotoxicity was evaluated based on the percentage of cell survival in a dose-dependent manner regarding the negative control. The final IC50 values were determined by using Graph Pad Prism 9.0.

RB promoter i-motif = test: TO displacement assay, RB i-motif; format: binding
Procedure: DNA oligonucleotides were diluted to 1 μM with 1 × PBES buffer at pH 5.5, annealed at 95 °C for 10 min, cooled to room temperature, and stored at 4 °C for future use. TO dye (1 μM) was added to the DNA solution followed with incubation for 1 h. The spectra of 100 μL mixture with addition of different equivalent compounds at 25 °C were recorded based on fluorescence emission (λex = 480 nm).
TO displacement ratio (%) = (F0 − FC) / (F0 − FB) * 100.
F0 and FC were the fluorescence intensity of TO at 536 nm with DNA before and after adding compounds, respectively. FB was the fluorescence intensity of TO at 536 nm with buffer only.

BCL-2 promoter i-motif = test: CD melting experiment, BCL-2 i-motif; format: binding; details: BPES buffer pH 5.5; 20 equivalents (20 μM) compound
Procedure: CD-melting experiment was carried out following a published method without significant modification. BCL-2 promoter i-motif and G-quadruplex structures at a concentration of 5 μM were annealed in buffer at 95 °C for 10 min, and then cooled to room temperature. The annealed samples were incubated with B14 for 6 h, and then molar ellipticity at 287 nm for i-motif structure or 260 nm for G-quadruplex structure, where the CD value was the highest in our experiment, was measured over a temperature range of 20–90 °C at a heating rate of 0.5 °C/min. Tm values were determined and calculated through nonlinear regression curve fitting with software GraphPad Prism 9.0. (GraphPad Software Inc., California, USA).
Figure S6. CD melting experiments were performed to examine the effects of B14 and A22 on BCL-2 promoter i-motif and G-quadruplex. (A-H) CD melting experiments were performed for BCL-2 promoter i-motif or G-quadruplex in the absence or presence of B14 (2, 5, 20 equivalents) and A22 (20 equivalents). The oligonucleotide for BCL-2 i-motif was annealed in 1 X BPES buffer at pH 5.5, while the oligonucleotide for BCL-2 G-quadruplex was annealed in 20 mM Tris-HCl buffer with 20 mM NaCl at pH 7.4. The ΔTm values for the effects of B14 and A22 on BCL-2 promoter i-motif were determined to be 11.26 °C and 11.82 °C, respectively. […]

APP/PS1 transgenic mice [1] = test: Nissl and H&E staining of hippocampus; format: in vivo; details: vs model group
Excerpt: (§1) Five months old male APP/PS1 mice, weighing 25–33 g, were purchased from Guangdong Medical Laboratory Animal Center and housed in the Laboratory Animal Center of Sun Yat-sen University (Guangzhou, China) for experimentation. All procedures were approved by the Animal Care and Use Committee of Sun Yat-sen University and complied with legal requirements and national guidelines for the care and maintenance of laboratory animals (Approval No. SYSU-IACUC-2024-002032). The mice were housed in a specific pathogen-free environment with a controlled temperature of 22 ± 1 °C and a 12-h dark/light cycle. The mice were fed with a standard diet, and 30 mice were randomly divided into 6 groups (N = 5). Compound B14 was dissolved in saline and administered at doses of 10, 20, or 40 mg/kg. APP/PS1 male mice were grown until 6 months of age, and then injected intraperitoneally with compound B14 every other day for 60 days. Behavioral experiments were then conducted, and tissue specimens were collected for biochemical analysis.
The mice were sacrificed, with their brains and organs isolated and embedded in paraffin. The brains and organs were then sectioned into 6 μm thin slices. These slices were subjected to H&E or Nissl staining (Servicebio, Guangzhou, China). The stained sections were subsequently imaged and analyzed by using microscopy.

APP/PS1 transgenic mice [2] = test: TUNEL staining of brain sections; format: in vivo; details: B14 10, 20, 40 mg/kg i.p. every other day
Excerpt: as §1

Aβ1-42 = target: T1, Aβ1-42 (Homo sapiens, UniProt P05067); test: Thioflavine T fluorescence spectroscopy assay (time course to 96 h); format: biochemical; details: 20 μM compound, Aβ1-42 incubated for 96 h
T1 construct: Aβ1-42 was purchased from Gill Biochemicals Ltd (Shanghai, China); purchased Gill Biochemicals Ltd (Shanghai, China)
T1 sequence (P05067 672-713 limits assumed): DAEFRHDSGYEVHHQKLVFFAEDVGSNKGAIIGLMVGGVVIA
Procedure: (§2) The Aβ1-42 solutions (100 μM) were co-incubated with B14 (20 μM) or Curcumin (20 μM) at 37 °C protected from light for 96 h. 30 μL of Aβ1-42 solution was taken at different time points (0 h, 10 h, 24 h, 48 h, 72 h, 96 h), mixed fully with 400 μL of ThT solution (15 μM), and incubated in the dark for 30 min. The fluorescence signal was recorded by using a Cary Eclipse fluorescence spectrophotometer (Varian, USA) with the following setting: excitation wavelength at 440 nm, emission wavelength at 480 nm, and slit width of 20 nm.
as §2, with “μM) and” for “μM) or”, “Aβ1-42 solutions were” for “Aβ1-42 solution was”, “by” for “by using”, “with” for “with the following setting:”

`O=C(CCN1CCOCC1)Nc1ccc2c(c1)c(=O)c1cc(NC(=O)CCN3CCOCC3)ccc1n2-c1ccc2occc2c1` [Compound B14] was tested, and the IC50 (HK-2 cells) was over 100 µM, the TO displacement ratio (RB promoter i-motif) was 1% and the “ΔTm (CD melting)” value (BCL-2 promoter i-motif) was 11.26 °C. For the same compound, the “hippocampal neuron damage (HE staining)” value (APP/PS1 transgenic mice [1]) was “could reverse the damage of hippocampal neurons in mice”, the “number of Nissl bodies in CA1-CA4 and DG regions” value (APP/PS1 transgenic mice [1]) was “restored” and the “proportion of TUNEL-positive neurons” value (APP/PS1 transgenic mice [2]) was “significantly decreased the proportion of TUNEL-positive neurons”. For the same compound, the “decrease of ThT fluorescence intensity” value (Aβ1-42) was 39.58 ± 2.08%.
